Reference: PubChem BioAssay (NCI)
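Five compound concentrations were applied to cells in 96-well plates for 48 hours; endpoints were derived by simple linear interpolation of the resulting dose-response curve. Definition used: TGI = concentration required for complete inhibition of growth.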

Tests used:
Assay in all cases: NCI-60 cell line screen, 48 h
[1] = tested on: 786-0 renal
[2] = tested on: A549 NSCLC
[3] = tested on: ACHN renal
[4] = tested on: CAKI-1 renal
[5] = tested on: CCRF-CEM leukemia
[6] = tested on: COLO 205 colon
[7] = tested on: DLD-1 colon
[8] = tested on: DMS 114 small cell lung
[9] = tested on: DMS 273 small cell lung
[10] = tested on: EKVX NSCLC
[11] = tested on: HCC-2998 colon
[12] = tested on: HCT-116 colon
[13] = tested on: HCT-15 colon
[14] = tested on: HL-60(TB) leukemia
[15] = tested on: HOP-62 NSCLC
[16] = tested on: HOP-92 NSCLC
[17] = tested on: HT29 colon
[18] = tested on: IGROV1 ovarian
[19] = tested on: K-562 leukemia
[20] = tested on: KM12 colon
[21] = tested on: KM20L2 colon
[22] = tested on: LOX IMVI melanoma
[23] = tested on: LXFL 529 NSCLC
[24] = tested on: M14 melanoma
[25] = tested on: M19-MEL melanoma
[26] = tested on: MALME-3M melanoma
[27] = tested on: MOLT-4 leukemia
[28] = tested on: NCI-H226 lung
[29] = tested on: NCI-H23 lung
[30] = tested on: NCI-H460 lung
[31] = tested on: NCI-H522 lung
[32] = tested on: OVCAR-3 ovarian
[33] = tested on: OVCAR-4 ovarian
[34] = tested on: OVCAR-5 ovarian
[35] = tested on: OVCAR-8 ovarian
[36] = tested on: RPMI-8226 leukemia
[37] = tested on: RXF 393 renal
[38] = tested on: SF-268 CNS
[39] = tested on: SF-295 CNS
[40] = tested on: SF-539 CNS
[41] = tested on: SK-MEL-2 melanoma
[42] = tested on: SK-MEL-28 melanoma
[43] = tested on: SK-MEL-5 melanoma
[44] = tested on: SK-OV-3 ovarian
[45] = tested on: SN12C renal
[46] = tested on: SNB-19 CNS
[47] = tested on: SNB-75 CNS
[48] = tested on: SNB-78 CNS
[49] = tested on: SR leukemia
[50] = tested on: SW-620 colon
[51] = tested on: TK-10 renal
[52] = tested on: U251 CNS
[53] = tested on: UACC-257 melanoma
[54] = tested on: UACC-62 melanoma
[55] = tested on: UO-31 renal
[56] = tested on: XF 498 CNS
[57] = tested on: A498 renal
[58] = tested on: HOP-18 NSCLC

**Q.** Which results are given for `Cn1cccc(C(=O)c2ccccc2)c1=O`?
**A.** TGI [1]: > 100 µM; TGI [2]: > 100 µM; TGI [3]: > 100 µM; TGI [4]: > 100 µM; TGI [5]: > 100 µM; TGI [6]: > 100 µM; TGI [7]: > 100 µM; TGI [8]: > 100 µM; TGI [9]: > 100 µM; TGI [10]: > 100 µM; TGI [11]: > 100 µM; TGI [12]: > 100 µM; TGI [13]: > 100 µM; TGI [14]: > 100 µM; TGI [15]: > 100 µM; TGI [16]: > 100 µM; TGI [17]: > 100 µM; TGI [18]: > 100 µM; TGI [19]: > 100 µM; TGI [20]: > 100 µM; TGI [21]: > 100 µM; TGI [22]: > 100 µM; TGI [23]: > 100 µM; TGI [24]: > 100 µM; TGI [25]: > 100 µM; TGI [26]: > 100 µM; TGI [27]: > 100 µM; TGI [28]: > 100 µM; TGI [29]: > 100 µM; TGI [30]: > 100 µM; TGI [31]: > 100 µM; TGI [32]: > 100 µM; TGI [33]: > 100 µM; TGI [34]: > 100 µM; TGI [35]: > 100 µM; TGI [36]: > 100 µM; TGI [37]: > 100 µM; TGI [38]: > 100 µM; TGI [39]: > 100 µM; TGI [40]: > 100 µM; TGI [41]: > 100 µM; TGI [42]: > 100 µM; TGI [43]: > 100 µM; TGI [44]: > 100 µM; TGI [45]: > 100 µM; TGI [46]: > 100 µM; TGI [47]: > 100 µM; TGI [48]: > 100 µM; TGI [49]: > 100 µM; TGI [50]: > 100 µM; TGI [51]: > 100 µM; TGI [52]: > 100 µM; TGI [53]: > 100 µM; TGI [54]: > 100 µM; TGI [55]: > 100 µM; TGI [56]: > 100 µM

**Q.** With `CN(C)CC/C(=N\Nc1c(F)c(F)c(F)c(F)c1F)c1ccccc1` as the compound, how does the TGI [1] read?
**A.** > 100 µM

**Q.** What about the TGI [57] of the same compound?
**A.** > 100 µM

**Q.** What about the TGI [2] of the same compound?
**A.** > 100 µM

**Q.** And the TGI [3]?
**A.** > 100 µM

**Q.** And the TGI [5]?
**A.** 95.5 µM

**Q.** What about the TGI [6] of the same compound?
**A.** > 100 µM

**Q.** And the TGI [7]?
**A.** > 100 µM

**Q.** And the TGI [8]?
**A.** 79.2 µM

**Q.** What about the TGI [9] of the same compound?
**A.** > 100 µM

**Q.** And the TGI [10]?
**A.** > 100 µM

**Q.** And the TGI [12]?
**A.** > 100 µM

**Q.** And the TGI [13]?
**A.** > 100 µM

**Q.** And the TGI [14]?
**A.** 28.2 µM

**Q.** What about the TGI [58] of the same compound?
**A.** > 100 µM

**Q.** What about the TGI [17] of the same compound?
**A.** > 100 µM

**Q.** What about the TGI [18] of the same compound?
**A.** > 100 µM

**Q.** What about the TGI [19] of the same compound?
**A.** > 100 µM

**Q.** What about the TGI [20] of the same compound?
**A.** > 100 µM

**Q.** And the TGI [21]?
**A.** > 100 µM

**Q.** What about the TGI [22] of the same compound?
**A.** > 100 µM

**Q.** And the TGI [23]?
**A.** > 100 µM

**Q.** What about the TGI [25] of the same compound?
**A.** > 100 µM

**Q.** What about the TGI [26] of the same compound?
**A.** > 100 µM

**Q.** And the TGI [27]?
**A.** > 100 µM

**Q.** And the TGI [29]?
**A.** > 100 µM

**Q.** And the TGI [30]?
**A.** > 100 µM

**Q.** What about the TGI [31] of the same compound?
**A.** > 100 µM

**Q.** And the TGI [33]?
**A.** > 100 µM

**Q.** And the TGI [34]?
**A.** > 100 µM

**Q.** And the TGI [35]?
**A.** > 100 µM

**Q.** And the TGI [36]?
**A.** 70.5 µM

**Q.** What about the TGI [37] of the same compound?
**A.** > 100 µM

**Q.** What about the TGI [38] of the same compound?
**A.** > 100 µM

**Q.** What about the TGI [39] of the same compound?
**A.** > 100 µM

**Q.** What about the TGI [40] of the same compound?
**A.** > 100 µM

**Q.** What about the TGI [41] of the same compound?
**A.** > 100 µM

**Q.** What about the TGI [42] of the same compound?
**A.** > 100 µM

**Q.** And the TGI [43]?
**A.** 28 µM

**Q.** And the TGI [44]?
**A.** > 100 µM

**Q.** And the TGI [45]?
**A.** > 100 µM

**Q.** And the TGI [46]?
**A.** > 100 µM

**Q.** And the TGI [47]?
**A.** 13.1 µM

**Q.** And the TGI [48]?
**A.** > 100 µM

**Q.** And the TGI [49]?
**A.** 47.9 µM

**Q.** And the TGI [50]?
**A.** > 100 µM

**Q.** What about the TGI [51] of the same compound?
**A.** > 100 µM

**Q.** And the TGI [52]?
**A.** > 100 µM

**Q.** What about the TGI [53] of the same compound?
**A.** 80.6 µM

**Q.** What about the TGI [54] of the same compound?
**A.** > 100 µM

**Q.** What about the TGI [55] of the same compound?
**A.** 63.4 µM
